IC50 and AC50 data for 5 compounds are collected here from ChEMBL document CHEMBL1201862, “PubChem BioAssay data set” (2004).

Active and inactive are the calls of the source. Some results are limits rather than exact numbers.

In assay [1] the target is COUP transcription factor 2 (Homo sapiens, UniProt P24468). Briefly: Luminescence-based cell-based high throughput dose response assay to identify inhibitors of COUP-TFII (NR2F2). The assay is classed as functional.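 Further: HEK293 cells transiently cotransfected with COUP-TFII expression vector and reporter; luciferase reporter luminescence driven by COUP-TFII from the pX2-168 reporter plasmid.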
The test system of a further assay is HEK293. Briefly: HEK293T cell cytotoxicity, dose response, cytotoxicity control, ATP luminescence, cherry-pick samples (AID 687005).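 Further: cells exposed to compound for 48 hours.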 The assay is classed as functional, cell-based. The note with it: Homo sapiens.
Assay [2] is described as follows: HEK293 Cytotoxicity Assay Measured in Cell-Based System Using Plate Reader - 7071-01_Inhibitor_Dose_CherryPick_Activity_Set2. The assay is classed as functional.
The next assay addresses Paired box protein Pax-8 (Homo sapiens, UniProt Q06710). Briefly: inhibitors of PAX8-driven TPO luciferase reporter, dose response, RMG-I cells, cherry-pick (AID 687027).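 Further: luciferase reporter driven by Pax8 target thyroperoxidase promoter measured by SteadyGlo luminescence.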 Type of assay: functional, cell-based. For orientation: Reporter assays use an easily measured gene product as a stand-in for the process of interest.
The nature of assay [3]: IOSE-T80 ovarian epithelial cell cytotoxicity, dose response, cytotoxicity control for PAX8 inhibitor project, plate reader, dry powder samples (AID 743045). The assay is classed as functional, cell-based.
The nature of assay [4]: NIH:OVCAR-3 ovarian cancer cell cytotoxicity, dose response, PAX8 inhibitor project, plate reader, dry powder samples (AID 743044). The assay is classed as functional, cell-based.
Assay [5] can be described thus: IGROV1 ovarian cancer cell cytotoxicity, dose response, PAX8 inhibitor project, plate reader, dry powder samples (AID 743043). Conditions: IGROV-1. Type of assay: functional, cell-based.
Assay [6] in a line: cytotoxicity in OVCAR8 ovarian cancer cells, dose response, PAX8 project, cell-based, plate reader, dry powder samples (AID 743197). The assay is classed as functional. The note with it: OVCAR-8.
Assay [7] has as its target Sphingosine 1-phosphate receptor 1 (Homo sapiens, UniProt P21453). The assay can be described thus: Late-stage counterscreen for antagonists of kappa opioid receptor 1 (OPRK1): fluorescence-based cell-based dose response assay to identify antagonists of Sphingosine 1-Phosphate Receptor 1 (S1P1). The assay is classed as functional. For orientation: A counterscreen serves to expose hits that act by an unwanted route or on another target.

The target of assay [8] is Delta-type opioid receptor (Homo sapiens, UniProt P41143). The assay can be described thus: Late-stage results from the probe development effort to identify antagonists of OPRK1: fluorescence-based cell-based dose response OPRD1 counterscreen. The assay is classed as functional.
A further assay addresses Mu-type opioid receptor (Homo sapiens, UniProt P35372). Briefly: Late-stage results from the probe development effort to identify antagonists of OPRK1: luminescence-based cell-based dose response OPRM1 counterscreen. The assay is classed as functional.

Sequence of Delta-type opioid receptor (P41143 whole entry): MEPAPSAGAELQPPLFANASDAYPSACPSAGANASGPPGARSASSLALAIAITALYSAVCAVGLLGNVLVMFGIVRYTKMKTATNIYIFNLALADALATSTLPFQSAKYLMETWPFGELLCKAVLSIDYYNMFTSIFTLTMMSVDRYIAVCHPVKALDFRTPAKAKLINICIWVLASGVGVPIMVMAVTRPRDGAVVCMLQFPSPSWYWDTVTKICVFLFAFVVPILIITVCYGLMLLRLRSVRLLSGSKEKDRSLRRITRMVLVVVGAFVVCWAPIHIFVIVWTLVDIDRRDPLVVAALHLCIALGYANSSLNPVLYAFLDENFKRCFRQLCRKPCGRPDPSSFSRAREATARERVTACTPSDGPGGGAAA
Sequence of Mu-type opioid receptor (P35372 whole entry): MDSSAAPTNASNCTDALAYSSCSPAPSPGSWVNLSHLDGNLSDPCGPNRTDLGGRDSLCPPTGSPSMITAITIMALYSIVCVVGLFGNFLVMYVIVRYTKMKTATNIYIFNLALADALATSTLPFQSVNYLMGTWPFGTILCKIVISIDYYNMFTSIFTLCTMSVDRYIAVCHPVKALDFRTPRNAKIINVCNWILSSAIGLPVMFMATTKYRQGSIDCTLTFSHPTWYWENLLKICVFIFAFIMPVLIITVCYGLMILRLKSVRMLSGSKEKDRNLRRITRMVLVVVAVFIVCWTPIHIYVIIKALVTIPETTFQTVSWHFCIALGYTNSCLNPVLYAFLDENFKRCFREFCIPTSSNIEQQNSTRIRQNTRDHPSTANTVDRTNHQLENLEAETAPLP
Sequence of COUP transcription factor 2 (P24468 whole entry): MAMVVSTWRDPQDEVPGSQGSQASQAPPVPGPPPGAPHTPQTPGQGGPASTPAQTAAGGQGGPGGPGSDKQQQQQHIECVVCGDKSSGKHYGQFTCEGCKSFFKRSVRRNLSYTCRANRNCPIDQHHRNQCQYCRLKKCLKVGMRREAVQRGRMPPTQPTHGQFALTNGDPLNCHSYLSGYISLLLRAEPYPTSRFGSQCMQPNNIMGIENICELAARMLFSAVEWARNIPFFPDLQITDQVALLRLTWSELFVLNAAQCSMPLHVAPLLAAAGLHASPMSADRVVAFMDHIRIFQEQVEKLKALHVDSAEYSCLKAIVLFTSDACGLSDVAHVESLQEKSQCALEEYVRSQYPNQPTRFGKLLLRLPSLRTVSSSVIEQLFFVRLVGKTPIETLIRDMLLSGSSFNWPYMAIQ
Sequence of Sphingosine 1-phosphate receptor 1 (P21453 whole entry): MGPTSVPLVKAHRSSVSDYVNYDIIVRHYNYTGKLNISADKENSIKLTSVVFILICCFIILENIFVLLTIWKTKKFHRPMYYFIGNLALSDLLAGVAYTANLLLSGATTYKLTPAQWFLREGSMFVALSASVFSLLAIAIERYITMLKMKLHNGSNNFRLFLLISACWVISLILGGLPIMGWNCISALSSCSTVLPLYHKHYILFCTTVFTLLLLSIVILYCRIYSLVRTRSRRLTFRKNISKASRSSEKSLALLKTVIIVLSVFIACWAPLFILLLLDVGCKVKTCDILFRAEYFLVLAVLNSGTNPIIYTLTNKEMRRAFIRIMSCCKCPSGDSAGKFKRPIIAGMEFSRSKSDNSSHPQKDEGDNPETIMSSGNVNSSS
Sequence of Paired box protein Pax-8 (Q06710 whole entry): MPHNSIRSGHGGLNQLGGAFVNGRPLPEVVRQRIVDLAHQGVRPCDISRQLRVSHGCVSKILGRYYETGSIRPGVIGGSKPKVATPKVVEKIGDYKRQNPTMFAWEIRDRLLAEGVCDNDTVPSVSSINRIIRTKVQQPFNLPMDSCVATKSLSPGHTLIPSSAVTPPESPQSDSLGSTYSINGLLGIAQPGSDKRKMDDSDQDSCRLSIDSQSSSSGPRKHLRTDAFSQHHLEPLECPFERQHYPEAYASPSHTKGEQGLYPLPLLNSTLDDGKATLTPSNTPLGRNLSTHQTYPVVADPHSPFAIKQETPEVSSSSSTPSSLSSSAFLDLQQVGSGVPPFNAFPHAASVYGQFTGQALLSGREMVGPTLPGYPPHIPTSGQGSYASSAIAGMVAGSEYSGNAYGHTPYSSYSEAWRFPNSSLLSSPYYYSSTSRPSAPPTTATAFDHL

Turning to `Cc1ccc(-n2nc3c(=O)n(C(C)C(=O)NCCCc4ccccc4)nc(C)c3c2C)cc1` (stereo unspecified), in assay [1], the IC50 is 11.7 µM (inactive).
Turning to `O=S(=O)(NC[C@@H]1[C@@H](c2ccccc2)[C@H](CO)N1CC1CC1)c1ccccc1`, the AC50 (in the assay with HEK293; in [2]) was > 52 µM (inactive) in each case.
Turning to `C[C@@H]1CCCCO[C@@H](CN(C)Cc2ccc3c(c2)OCO3)[C@H](C)CN([C@@H](C)CO)C(=O)c2cc(NC(=O)Nc3ccc(C(F)(F)F)cc3)ccc2O1`, the half-maximal activity concentration (AC50) at Paired box protein Pax-8 was 14.5 µM (active); in assay [3], 63.2 µM (active); in assay [4], 15.4 µM (active); in assay [5], 34 µM (active); in assay [6], 30.2 µM (active).
With `CCOC(=O)c1cc(C(=O)OC)c(C)nc1N1CCC(NC2CCCCC2O)CC1` (stereo unspecified), the IC50 in assay [7] is > 50 µM (inactive).
As to `COC(=O)c1cc(Br)cnc1N1CCC(NC2CCCCCC2)CC1`, the IC50 in [8] was 12 µM (inactive); on Mu-type opioid receptor, 4.2 µM (active).

The IC50 is the concentration that inhibits the measured activity by half. By AC50 is commonly meant the concentration giving half of the maximal activity seen.
